Experimental data: US8043631B2, “Tumor targeting drug-loaded particles” (priority 2005, dated 2011)

Tests used:
[1] = test system: peritoneal cancer; conditions: intraperitoneal administration; cited from earlier work
[2] = test system: stage T0 and T1 bladder tumors obtained from human patients; conditions: cited from earlier work
[3] = test system: Human RT4 bladder transitional bladder cancer cells; test: cytotoxicity in RT4 cells, immediate and delayed effect, sulforhodamine B assay; format: cell-based; conditions: immediate effect
[4] = test system: human head and neck FaDu xenografts; test: nano-sized latex bead delivery and dispersion in tumors after tumor priming; format: in vivo, Mice; conditions: paclitaxel 40 milligrams per kilogram intravenously, beads 48 hours later, tumors excised 24 hours after
Method: Mice were implanted subcutaneously with human head and neck FaDu xenografts, and divided in two groups. […] The control group (without tumor priming) only received the vehicle. Forty-eight hours later, animals received an intravenous injection of red fluorescent latex beads of 100, or 200 nm diameter. Tumors were excised 24 hours after the injection of the beads and examined. […] The percentage of area in tumors occupied by particles was calculated as (total number of deep-derived pixels) divided by (total number of pixels per microscopic field), which provided a measurement of the dispersion area. The average bead concentration in tumors was the average fluorescence intensity, which was calculated as (mean intensity of bead-derived pixels multiplied by total number of bead-derived pixels) divided by (total number of pixels per microscopic field). Eight tumors were used per data point.

[5] = test system: Histocultures of head and neck FaDu xenograft tumors; test: Lipo-siRNA penetration into tumor histocultures with and without tumor priming; format: cell-based; conditions: paclitaxel 0.5 μM maintained for 48 hour, versus no priming
Method: Histocultures of head and neck FaDu xenograft tumors were maintained in vitro. Penetration of siRNA, formulated in cationic liposomes, was evaluated with and without tumor priming pretreatment. To facilitate detection, siRNA were labeled with green fluorescence (siGLO) and lipids were labeled with a red fluorescence marker. […] In the overlay picture, the red and green fluorescent images are combined. […] The bars indicate a length of 100 μm.

Structure (SMILES) | extension of survival time in patients [1] | IC50 [2] [µM] | maximal inhibition ([3]; 48 hours) [%] | maximal inhibition ([3]; 96 hours) [%] | delivery of latex beads to tumors after tumor priming [4] | penetration of siGLO-loaded liposomes after paclitaxel priming [5]
N.N.[Cl][Pt][Cl] [cisplatin] | about 20% |  |  |  |  | 
CC(=O)O[C@H]1C(=O)[C@@]2(C)[C@H]([C@H](OC(=O)c3ccccc3)[C@]3(O)C[C@H](OC(=O)[C@H](O)[C@@H](NC(=O)c4ccccc4)c4ccccc4)C(C)=C1C3(C)C)[C@]1(OC(C)=O)CO[C@@H]1C[C@@H]2O [paclitaxel] |  | 1.2 | 60 | 84 | enhanced the delivery of the 100- and 200-nm latex beads | at least five-fold deeper
